These results are taken from patent US10906924B2, “Modulators of indoleamine 2,3-dioxygenase” (GLAXOSMITHKLINE INTELLECTUAL PROPERTY DEVELOPMENT LIMITED, priority 2017, dated 2021).

This assay addresses indoleamine 2,3-dioxygenase (IDO1) (Homo sapiens, UniProt P14902). As to the kind of experiment: PBMC IDO1 assay (kynurenine by mass spectrometry). Format: cell-based. The settings on record: human PBMC stimulated with IFN-γ and LPS, 2 days incubation, kynurenine detected by mass spectrometry; read-out: IDO1 PBMC pIC50 (converted).

Sequence of indoleamine 2,3-dioxygenase (IDO1) (P14902 whole entry): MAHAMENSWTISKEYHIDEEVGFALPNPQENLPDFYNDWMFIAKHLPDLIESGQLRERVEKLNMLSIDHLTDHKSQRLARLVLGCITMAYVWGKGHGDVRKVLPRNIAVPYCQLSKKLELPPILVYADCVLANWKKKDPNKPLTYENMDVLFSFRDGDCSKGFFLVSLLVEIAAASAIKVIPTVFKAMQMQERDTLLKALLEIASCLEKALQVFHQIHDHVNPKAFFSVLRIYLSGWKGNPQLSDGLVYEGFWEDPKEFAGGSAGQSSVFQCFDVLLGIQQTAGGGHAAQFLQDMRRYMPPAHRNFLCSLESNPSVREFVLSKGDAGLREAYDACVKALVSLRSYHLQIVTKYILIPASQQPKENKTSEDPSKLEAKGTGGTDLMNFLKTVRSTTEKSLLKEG

`COC(=O)N1CCC2(CC1)C[C@H](NC(=O)c1cccc3cc[nH]c13)c1cc(Br)ccc1O2` [Example 4, (S)-methyl 6-bromo-4-(1H-indole-7-carboxamido)spiro[chroman-2,4′-piperidine]-1′-carboxylate]: the IC50 is 3.98 nM. With `COC(=O)N1CCC2(CC1)C[C@H](NC(=O)c1cccc3cn[nH]c13)c1cc(Br)ccc1O2` [Example 5, (S)-methyl 6-bromo-4-(1H-indazole-7-carboxamido)spiro[chroman-2,4′-piperidine]-1′-carboxylate] the figure was 5.01 nM; with `CCOC(=O)N1CCC2(CC1)C[C@H](NC(=O)c1cccc3[nH]ccc13)c1cc(Br)ccc1O2` [Example 8, (S)-ethyl 6-bromo-4-(1H-indole-4-carboxamido)spiro[chroman-2,4′-piperidine]-1′-carboxylate], 5.01 nM; with `CCOC(=O)N1CCC2(CC1)CC(NC(=O)c1cccc3cn[nH]c13)c1nc(OC)ccc1O2` (stereo not shown) [Example 9, ethyl 4′-(1H-indazole-7-carboxamido)-6′-methoxy-3′,4′-dihydrospiro[piperidine-4,2′-pyrano[3,2-b]pyridine]-1-carboxylate], 10 nM. With `CCOC(=O)N1CCC2(CC1)C[C@H](NC(=O)c1ccccc1N)c1cc(Br)ccc1O2` [Example 10, (S)-ethyl 4-(2-aminobenzamido)-6-bromospiro[chroman-2,4′-piperidine]-1′-carboxylate] the figure was 12.6 nM; with `CCOC(=O)N1CCC2(CC1)CC(NC(=O)c1cccc3cn[nH]c13)c1cc(Br)ncc1O2` (stereo not shown) [Example 16, ethyl 6′-bromo-4′-(1H-indazole-7-carboxamido)-3′,4′-dihydrospiro[piperidine-4,2′-pyrano[2,3-c]pyridine]-1-carboxylate], 31.6 nM; with `CCOC(=O)N1CCC2(CC1)CC(NC(=O)c1cccc3cc[nH]c13)c1c(Br)cccc1O2` (stereo not shown) [Example 17, ethyl 5-bromo-4-(1H-indole-7-carboxamido)spiro[chroman-2,4′-piperidine]-1′-carboxylate], 39.8 nM.

For `CCOC(=O)N1CCC2(CC1)CC(NC(=O)c1cccc3cn[nH]c13)c1cc(CO)ccc1O2` (stereo not shown) [Example 18, ethyl 6-(hydroxymethyl)-4-(1H-indazole-7-carboxamido)spiro[chroman-2,4′-piperidine]-1′-carboxylate], the IC50 is 39.8 nM.

For `CCOC(=O)N1CCC2(CC1)CC(NC(=O)c1cccnc1)c1cc(Br)ccc1O2` (stereo not shown) [Example 21, ethyl 6-bromo-4-(nicotinamido)spiro[chroman-2,4′-piperidine]-1′-carboxylate], the IC50 is 79.4 nM. Consider `CCCC(=O)N1CCC2(CC1)C[C@H](NC(=O)c1cccc3cn[nH]c13)c1cc(Br)ccc1O2` [Example 22, (S)—N-(6-bromo-1′-butyrylspiro[chroman-2,4′-piperidin]-4-yl)-1H-indazole-7-carboxamide], for which the IC50 is 79.4 nM.

Consider `CCOC(=O)N1CCC2(CC1)CC(NC(=O)c1cccc3cn[nH]c13)c1cc(Br)cnc1O2` (stereo not shown) [Example 23, ethyl 6′-bromo-4′-(1H-indazole-7-carboxamido)-3′,4′-dihydrospiro[piperidine-4,2′-pyrano[2,3-b]pyridine]-1-carboxylate], for which the IC50 is 79.4 nM. To `CCOC(=O)N1CCC2(CC1)CC(NC(=O)c1cccc3cc[nH]c13)c1ccc(Br)cc1O2` (stereo not shown) [Example 24, ethyl 7-bromo-4-(1H-indole-7-carboxamido)spiro[chroman-2,4′-piperidine]-1′-carboxylate] belongs 100 nM; to `CCOC(=O)N1CCC2(CC1)C[C@H](NC(=O)c1cccc(O)n1)c1cc(Br)ccc1O2` [Example 25, (S)-ethyl 6-bromo-4-(6-hydroxypicolinamido)spiro[chroman-2,4′-piperidine]-1′-carboxylate], 100 nM. With `CCOC(=O)N1CCC2(CC1)CC(NC(=O)c1cncc3cn[nH]c13)c1ccccc1O2` (stereo not shown) [Example 26, ethyl 4-(1H-pyrazolo[4,3-c]pyridine-7-carboxamido)spiro[chroman-2,4′-piperidine]-1′-carboxylate] the figure was 126 nM.

For the compound `CCOC(=O)N1CCC2(CC1)CC(NC(=O)c1cccc3cn[nH]c13)c1ncccc1O2` (stereo not shown) [Example 29, ethyl 4′-(1H-indazole-7-carboxamido)-3′,4′-dihydrospiro[piperidine-4,2′-pyrano[3,2-b]pyridine]-1-carboxylate], the IC50 was 158 nM. To `CCOC(=O)N1CCC2(CC1)CC(NC(=O)c1cncc(F)c1)c1ccccc1O2` (stereo not shown) [Example 30, ethyl 4-(5-fluoronicotinamido)spiro[chroman-2,4′-piperidine]-1′-carboxylate] belongs 200 nM; to `O=C(N[C@H]1CC2(CCN(C(=O)Oc3ccccc3)CC2)Oc2ccc(Br)cc21)c1cccc2cn[nH]c12` [Example 31, (S)-phenyl 6-bromo-4-(1H-indazole-7-carboxamido)spiro[chroman-2,4′-piperidine]-1′-carboxylate], 200 nM; to `CCOC(=O)N1CCC2(CC1)C[C@H](NC(=O)c1ncc[nH]1)c1cc(Br)ccc1O2` [Example 32, (S)-ethyl 6-bromo-4-(1H-imidazole-2-carboxamido)spiro[chroman-2,4′-piperidine]-1′-carboxylate], 200 nM.

Take `CCOC(=O)N1CCC2(CC1)CC(NC(=O)c1cccc3cn[nH]c13)c1ccncc1O2` (stereo not shown) [Example 33, ethyl 4′-(1H-indazole-7-carboxamido)-3′,4′-dihydrospiro[piperidine-4,2′-pyrano[2,3-c]pyridine]-1-carboxylate]: the IC50 was 200 nM. With `CCOC(=O)N1CCC2(CC1)CC(NC(=O)c1ccccn1)c1ccccc1O2` (stereo not shown) [Example 34, ethyl 4-(picolinamido)spiro[chroman-2,4′-piperidine]-1′-carboxylate], the IC50 is 251 nM. With `CCOC(=O)N1CCC2(CC1)CC(NC(=O)c1cccnc1)c1nc(OC)ccc1O2` (stereo not shown) [Example 35, ethyl 6′-methoxy-4′-(nicotinamido)-3′,4′-dihydrospiro[piperidine-4,2′-pyrano[3,2-b]pyridine]-1-carboxylate] the figure was 251 nM; with `CCOC(=O)N1CCC2(CC1)CC(NC(=O)c1cccc3ccn(C)c13)c1ccccc1O2` (stereo not shown) [Example 38, ethyl 4-(1-methyl-1H-indole-7-carboxamido)spiro[chroman-2,4′-piperidine]-1′-carboxylate], 398 nM. Turning to `CCOC(=O)N1CCC2(CC1)CC(NC(=O)c1cccc3nc[nH]c13)c1ccccc1O2` (stereo not shown) [Example 39, ethyl 4-(1H-benzo[d]imidazole-7-carboxamido)spiro[chroman-2,4′-piperidine]-1′-carboxylate], the IC50 was 398 nM.

As to `CCOC(=O)N1CCC2(CC1)CC(Nc1nnc(C(F)(F)F)s1)c1ccccc1O2` (stereo not shown) [Example 40, ethyl 4-((5-(trifluoromethyl)-1,3,4-thiadiazol-2-yl)amino)spiro[chroman-2,4′-piperidine]-1′-carboxylate], the IC50 is 398 nM.

As for `CCOC(=O)N1CCC2(CC1)CC(NC(=O)c1cccnc1)c1ccccc1O2` (stereo not shown) [Example 41, ethyl 4-(nicotinamido)spiro[chroman-2,4′-piperidine]-1′-carboxylate], the IC50 is 501 nM. With `CCOC(=O)N1CCC2(CC1)CC(NC(=O)c1cccc3cn[nH]c13)c1cccnc1O2` (stereo not shown) [Example 42, ethyl 4′-(1H-indazole-7-carboxamido)-3′,4′-dihydrospiro[piperidine-4,2′-pyrano[2,3-b]pyridine]-1-carboxylate] the figure was 501 nM; with `CCOC(=O)N1CCC2(CC1)CC(NC(=O)c1ccnn1C)c1ccccc1O2` (stereo not shown) [Example 43, ethyl 4-(1-methyl-1H-pyrazole-5-carboxamido)spiro[chroman-2,4′-piperidine]-1′-carboxylate], 631 nM. With `CCOC(=O)N1CCC2(CC1)C[C@H](NC(=O)c1ccn[nH]1)c1cc(Br)ccc1O2` [Example 44, (S)-ethyl 6-bromo-4-(1H-pyrazole-5-carboxamido)spiro[chroman-2,4′-piperidine]-1′-carboxylate] the figure was 631 nM; with `CCOC(=O)N1CCC2(CC1)CC(NC(=O)c1ncccn1)c1ccccc1O2` (stereo not shown) [Example 45, ethyl 4-(pyrimidine-2-carboxamido)spiro[chroman-2,4′-piperidine]-1′-carboxylate], 794 nM. With `CCOC(=O)N1CCC2(CC1)CC(NC(=O)c1ncccc1OC)c1ccccc1O2` (stereo not shown) [Example 46, ethyl 4-(3-methoxypicolinamido)spiro[chroman-2,4′-piperidine]-1′-carboxylate], the IC50 is 794 nM. To `CCOC(=O)N1CCC2(CC1)C[C@H](NC(=O)c1cccc3cn(COP(=O)(O)O)nc13)c1cc(Br)ccc1O2` [Example 50, 2-amino-2-(hydroxymethyl)propane-1,3-diol hemi((S)-(7-((6-bromo-1-(ethoxycarbonyl)spiro[chroman-2,4′-piperidin]-4-yl)carbamoyl)-2H-indazol-2-yl)methyl phosphate)] belongs 126 nM; to `CCOC(=O)N1CCC2(CC1)C[C@H](NC(=O)c1cccc3cnn(C(=O)OCC)c13)c1cc(Br)ccc1O2` [Example 51, ethyl (S)-6-bromo-4-(1-(ethoxycarbonyl)-1H-indazole-7-carboxamido)spiro[chromane-2,4′-piperidine]-1′-carboxylate], 10 nM. With `CCOC(=O)N1CCC2(CC1)C[C@H](NC(=O)c1cccc3cnn(C(C)=O)c13)c1cc(Br)ccc1O2` [Example 52, ethyl (S)-4-(1-acetyl-1H-indazole-7-carboxamido)-6-bromospiro [chromane-2,4′-piperidine]-1′-carboxylate] the figure was 3.98 nM; with `COC(=O)N1CCC2(CC1)C[C@H](NC(=O)c1cccc3cn(COP(=O)(O)O)nc13)c1cc(Br)ccc1O2` [Example 53, 2-amino-2-(hydroxymethyl)propane-1,3-diol hemi((S)-(7-((6-bromo-1′-(methoxycarbonyl)spiro[chroman-2,4′-piperidin]-4-yl)carbamoyl)-2H-indazol-2-yl)methyl phosphate)], 631 nM.
